From patent publication US11987647B2, “Cyclic cell-penetrating peptides with one or more hydrophobic residues” (Ohio State Innovation Foundation, priority 2018, dated 2024) come the findings set out here.

This assay relates to HeLa cells. As to the kind of experiment: Cytosolic entry efficiency of NF-labelled peptides by flow cytometry. The format is cell-based. The note with it: for Cellular Entry Efficiency In 10% FBS: 2 h, relative to CPP12 (100%); for CPP activity compared with CPP1-15 (in words): stereochemical variation of CPP1-15. Here is the method:
All of the peptides were labeled with naphthofluorescein (NF) at the Gln side chain through a long, flexible linker, miniPEG-Lys. HeLa cells were treated with 5 μM peptide for 2 h in the presence of 10% FBS and the cytosolic entry of the peptides was quantitated by flow cytometry analysis.
To determine cellular uptake efficiency of the CPPs disclosed herein, HeLa cells were cultured in 12-well plates (1.5×10^5 cells per well) overnight. The cells were incubated for 2 h with […] naphthofluorescein (NF)-labelled peptide in cellular media. At the end of incubation, the cells were washed with DPBS twice, detached from the plate with 0.25% trypsin, diluted into clear DMEM, pelleted at 250 g for 5 min, washed twice with DPBS, resuspended in DPBS, and analyzed on a BD FACS LSR II flow cytometer. For NF-labelled peptides, a 633-nm laser was used for excitation and the fluorescence emission was analyzed in the APC channel. Absolute cellular uptake efficiency was determined by comparing the concentration (via fluorescence intensity) of the CPP in the cytosol to the concentration in the extracellular medium. Relative cellular uptake efficiency was determined by comparing the cytosolic concentration of the CPP to that cytosolic concentration of the control CPP cyclo(FΦRRRRQ).

The mark [1] stands for this setting: Table 4, 5 μM NF-labelled peptide.
Setting [2] is: Table 7, 5 μM NF-labelled peptide.

[ ]: non-standard residue; d: D form. The star is where a group is joined. FtBu = phenylalanine with a tert-butanoyl substituent (F^tBu); 2Nal = N[C@@H](Cc1ccc2ccccc2c1)C(=O)O; Fmoc = O=C(OCC1c2ccccc2-c2ccccc21)*; Octanoyl = CCCCCCCC(=O)*; Dap = NC[C@H](N)C(=O)O; Hexanoyl = CCCCCC(=O)*

On to “cyclo(Dap^HexanRRRRQ) (cyclo([Dap](Hexanoyl)RRRRQ); SMILES CCCCCC(=O)NC[C@@H]1NC(=O)[C@H](CCC(N)=O)NC(=O)[C@H](CCCNC(=N)N)NC(=O)[C@H](CCCNC(=N)N)NC(=O)[C@H](CCCNC(=N)N)NC(=O)[C@H](CCCNC(=N)N)NC1=O) [CPP1-2]”, for which the “Cellular Entry Efficiency In 10% FBS” value under setting [1] was 2.9 ± 0.2% and the “Cellular Entry Efficiency In 10% FBS” value under setting [2] is recorded as 2.9 ± 0.2%.
Take “cyclo(Dap^1-PyrenRRRRQ) (cyclo([Dap](1‑pyrenoyl)RRRRQ)) [CPP1-5]”: the “Cellular Entry Efficiency In 10% FBS” value is, setting by setting: under setting [1], 10 ± 20%; under setting [2], 10 ± 20%.
With “cyclo(Dap^1-PyrenebRRRRQ) (cyclo([Dap](1‑pyrenylbutanoyl)RRRRQ)) [CPP1-8]”, the “Cellular Entry Efficiency In 10% FBS” value by setting is: under setting [1], 24 ± 1%; under setting [2], 24 ± 1%.
With cyclo(Lys^DecarRrRQ) [CPP1-19], the “CPP activity compared with CPP1-15 (in words)” value is reported as “reduced the CPP activity”. Moreover, under setting [1], the “Cellular Entry Efficiency In 10% FBS” value is 12%. Also, the “Cellular Entry Efficiency In 10% FBS” value under setting [2] was 12%.
As for cyclo(Asp^DecyrRrRQ) [CPP1-24], the “Cellular Entry Efficiency In 10% FBS” value came to 8.6% under setting [1] and 8.6% under setting [2].
In the case of cyclo(Lys^DecaRrRrQ) [CPP1-18], the “CPP activity compared with CPP1-15 (in words)” value is recorded as “reduced the CPP activity”. For the same substance, the “Cellular Entry Efficiency In 10% FBS” value under setting [1] is recorded as 31%. Further, under setting [2], the “Cellular Entry Efficiency In 10% FBS” value is 31%.
As for “cyclo(F^tBuRRRRQ) (cyclo([FtBu]RRRRQ)) [CPP1-1]”, the “Cellular Entry Efficiency In 10% FBS” value is, setting by setting: under setting [1], 6.7 ± 0.4%; under setting [2], 6.7 ± 0.4%.
For the substance “cyclo(FΦRRRRQ) (cyclo(F[2Nal]RRRRQ); SMILES N=C(N)NCCC[C@@H]1NC(=O)[C@H](CCCNC(=N)N)NC(=O)[C@H](CCCNC(=N)N)NC(=O)[C@H](Cc2ccc3ccccc3c2)NC(=O)[C@H](Cc2ccccc2)NC(=O)[C@H](CCC(N)=O)NC(=O)[C@H](CCCNC(=N)N)NC1=O) [CPP1, the first cyclic CPP discovered, reference compound]”, the “Cellular Entry Efficiency In 10% FBS” value under setting [1] amounted to 21% and the “Cellular Entry Efficiency In 10% FBS” value under setting [2] is 21%.
In the case of cyclo(Glu^DecyrRrRQ) [CPP1-25], the “Cellular Entry Efficiency In 10% FBS” value runs as follows: under setting [1], 34%; under setting [2], 34%.
On to “cyclo(Dap^3,3-diphenyRRRRQ) (cyclo([Dap](3,3‑diphenylpropanoyl)RRRRQ)) [CPP1-6]”, for which the “Cellular Entry Efficiency In 10% FBS” value under setting [1] stood at 3.9 ± 0.4% and the “Cellular Entry Efficiency In 10% FBS” value under setting [2] came to 3.9 ± 0.4%.
cyclo(Asp^DecyRrRrQ) [CPP1-22]: the “Cellular Entry Efficiency In 10% FBS” value reads like this: under setting [1], 11%; under setting [2], 11%.
Consider “cyclo(Dap^FmocRRRRQ) (cyclo([Dap](Fmoc)RRRRQ); SMILES N=C(N)NCCC[C@@H]1NC(=O)[C@H](CCCNC(=N)N)NC(=O)[C@H](CCCNC(=N)N)NC(=O)[C@H](CNC(=O)OCC2c3ccccc3-c3ccccc32)NC(=O)[C@H](CCC(N)=O)NC(=O)[C@H](CCCNC(=N)N)NC1=O) [CPP1-7]”, for which the “Cellular Entry Efficiency In 10% FBS” value was found to be 17 ± 1% under setting [1] and 17 ± 1% under setting [2].
cyclo(Glu^DecyRrRrQ) [CPP1-23]: the “Cellular Entry Efficiency In 10% FBS” value under setting [1] is listed as 1.4% and the “Cellular Entry Efficiency In 10% FBS” value under setting [2] is 1.4%.
Consider “cyclo(Dap^OctanRRRRQ) (cyclo([Dap](Octanoyl)RRRRQ); SMILES CCCCCCCC(=O)NC[C@@H]1NC(=O)[C@H](CCC(N)=O)NC(=O)[C@H](CCCNC(=N)N)NC(=O)[C@H](CCCNC(=N)N)NC(=O)[C@H](CCCNC(=N)N)NC(=O)[C@H](CCCNC(=N)N)NC1=O) [CPP1-3]”, for which the “Cellular Entry Efficiency In 10% FBS” value under setting [1] is 5.7 ± 0.6% and the “Cellular Entry Efficiency In 10% FBS” value under setting [2] amounted to 5.7 ± 0.6%.
